Source: PubChem BioAssay (NCI)
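Exposure lasted 48 hours, with cells grown in 96-well plates and compounds tested at five concentrations. GI50 = concentration required for 50% inhibition of growth. At the TGI there is no net growth.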

Key:
Experiment in all cases: NCI tumour cell line growth inhibition, 48 h
K-562 leukemia = system: K-562 leukemia
NCI-H460 lung = system: NCI-H460 lung
A498 renal = system: A498 renal
NCI-H23 lung = system: NCI-H23 lung
U251 CNS = system: U251 CNS
MCF7 breast = system: MCF7 breast
COLO 205 colon = system: COLO 205 colon
NCI-H522 lung = system: NCI-H522 lung
SNB-75 CNS = system: SNB-75 CNS
IGROV1 ovarian = system: IGROV1 ovarian

SMILES	TGI (K-562 leukemia) [µM]	TGI (NCI-H460 lung) [µM]	TGI (A498 renal) [µM]	TGI (NCI-H23 lung) [µM]	TGI (U251 CNS) [µM]	TGI (MCF7 breast) [µM]	TGI (COLO 205 colon) [µM]	TGI (NCI-H522 lung) [µM]	TGI (SNB-75 CNS) [µM]	TGI (IGROV1 ovarian) [µM]	GI50 (K-562 leukemia) [µM]	GI50 (NCI-H460 lung) [µM]	GI50 (A498 renal) [µM]	GI50 (NCI-H23 lung) [µM]	GI50 (U251 CNS) [µM]	GI50 (MCF7 breast) [µM]	GI50 (COLO 205 colon) [µM]	GI50 (NCI-H522 lung) [µM]	GI50 (SNB-75 CNS) [µM]	GI50 (IGROV1 ovarian) [µM]
CC1(C)CC2=NO[Se]3=C2C(=NO3)C1	12.4	4.05	10.4	5.65	18.7	14.2	3.73	5.46	6.96	6.43	–	–	–	–	–	–	–	–	–	–
Nc1cc(C(F)(F)F)c(-c2nc(N3CCOCC3)nc(N3CCOCC3)n2)cn1	> 100	> 53.3	0.45	> 100	44.2	19	10	> 83.9	2.19	0.528	3.65	0.299	0.14	0.446	1.22	0.113	0.265	0.624	0.118	0.0916
O=C1c2ccccc2N1C(=O)c1ccccc1[N+](=O)[O-]	> 100	> 100	> 100	> 100	> 100	> 100	> 100	> 100	> 100	> 100	–	–	–	–	–	–	–	–	–	–
Cc1cccc(Oc2ccc(Nc3ncnc4ccc(NC(=O)CN(C)C)cc34)cc2Cl)c1	4.63	3.35	9.18	11.6	3.29	3.87	3.48	1.98	5.05	2.41	1.91	1.81	1.8	2.95	1.68	1.69	1.71	0.244	2.01	0.376
CCOC(=O)C#Cc1c(C(=O)OCC)nnn1[C@@H]1O[C@H](COC)[C@@H](OC)[C@H]1OC	7.97	36.2	32.9	26.3	31.3	12.7	3.83	3.9	24.2	39.6	1.85	17.8	18.2	12.3	17	2.85	1.94	1.97	11.9	18.4
COc1cc(/C=C/c2cc(/C=C/c3ccc(O)c(OC)c3)n(C(=O)Nc3ccc(C)cc3)n2)ccc1O	–	1.86	4.87	3.99	3.48	2.97	3.51	0.909	1.36	3.94	0.359	0.339	1.43	0.586	0.422	0.4	1.91	0.235	0.321	0.667
OC[C@H]1C[C@](O)(c2ccc(F)cc2)[C@@H](c2ccc(F)cc2)O1	> 100	> 100	> 100	> 100	> 100	> 100	> 100	> 100	> 100	> 100	> 100	> 100	> 100	> 100	> 100	> 100	> 100	> 100	> 100	58.3
CN1CCN(C(=O)/C=C/c2ccc([N+](=O)[O-])o2)CC1	40.4	45.1	34.3	22	55.1	38.1	15	5.74	75.8	36.4	11	14.9	16.8	8.49	17.1	10.9	3.76	2.72	21.6	10.8
O=S(=O)(O)C(c1ccccc1)C(O)c1ccccc1 (centres undefined)	> 100	> 100	> 100	> 100	> 100	> 100	> 100	> 100	> 100	> 100	–	–	–	–	–	–	–	–	–	–
O=C1C[C@@H]2OCC=C3C[N+]4([O-])CC[C@]56c7ccccc7N1[C@H]5[C@H]2[C@H]3C[C@@H]64 (some centres undefined)	> 100	> 100	> 100	> 100	> 100	> 100	> 100	> 100	> 100	> 100	> 100	> 100	> 100	> 100	> 100	> 100	> 100	> 100	> 100	> 100
CN(C)[C@@H]1C(=O)C(C(=O)NCc2nc3[nH]cnc(=S)c3[nH]2)=C(O)[C@@]2(O)C(=O)C3=C(O)c4c(O)cccc4[C@@](C)(O)[C@H]3C[C@@H]12	> 100	> 100	> 100	> 100	> 100	> 100	> 100	> 100	> 100	> 100	1.41	19.1	> 100	8.85	> 100	1.57	3.87	> 100	1.79	16
COc1cc(NC(=O)COc2ccccc2)c(C(N)=O)cc1OC	> 100	> 100	15.4	20.4	17.9	> 100	5.13	7.06	11.9	> 100	0.31	0.529	2.77	1.32	0.777	0.661	0.453	0.41	0.547	4.07
COc1ccc(Cn2c(Br)c3c(c2-c2cc(OC)c(OC)c(OC)c2)CCc2sc(N)nc2-3)cc1	> 32.9	10.2	2.36	> 58.3	12.7	18.9	3.7	1.09	31.8	9.19	0.436	1.89	0.267	2.69	1.3	0.371	1.07	0.263	0.688	1.28
